Test results published in patent publication US6939707B2, “Isolated nucleic acid molecules which encode GAGE genes and uses thereof” (Ludwig Institute for Cancer Research, priority 1993, dated 2005).
Ends that are not written are not given here.

What was measured:
Format in all cases: cell-based, human
CTL 76/6 = test: TNF release by CTL 76/6 on peptide-pulsed COS-7 cells transfected with HLA-Cw6 cDNA; details: peptide 20 ug/ml, 90 minutes at 37° C., 3000 CTLs, TNF in supernatant after eighteen hours tested on WEHI-164-13 cells
Description: Each peptide was pulsed into COS-7 cells previously transfected with HLA-Cw6 cDNA, and combined with CTL 76/6 to determine if TNF release would be induced. Peptides (20 ug/ml) were added to COS-7 cells which had been transfected with the HLA-Cw6 cDNA twenty-four hours previously After incubation at 37° C. for 90 minutes, medium was discarded, and 3000 CTLs were added in 100 microliters of medium, containing 25 units/ml of IL-2. Eighteen hours later, TNF content of supernatant was tested via determining toxicity on WEHI-164-13 cells. […] The second peptide was used for further experiments.

LB33-EBV cells = test: 51Cr release lysis of peptide-incubated LB33-EBV cells (HLA-Cw6 positive) by CTL 76/6; details: CTL 76/6, effector:target ratio 10:1, four hours at 37° C., varying peptide concentration (FIG. 3)
Description: The lysis assay employed was a chromium release assay following Herin et at., Int. J. Cancer 39;390-396 (1987), the disclosure of which is incorporated by reference. The assay, however, is described herein. The target melanoma cells were grown in vitro, and then resuspended at 10^7 cells/ml in DMEM, supplemented with 10 mM Hepes and 30% FCS, and incubated for 45 minutes at 37° C. with 200 μCi/ml of Na(^51Cr)O4. Labeled cells were washed three times with DMEM supplemented with 10 mM Hepes. These were then resuspended in DMEM supplemented with 10 mM Hepes and 10% FCS, after which 100 ul aliquots containing 10^3 cells, were distributed into 96 well microplates. Samples of PBLs were added in 100 ul of the same medium, and assays were earned out in duplicate. Plates were centrifuged for 4 minutes at 100 g, and incubated for four hours at 37° C. in an 8% CO2 atmosphere.
Plates were centrifuged again, and 100 ul aliquots of supernatant were collected and counted. Percentage of ^51Cr release was calculated as follows: [formula] where ER is observed, experimental ^51Cr release, SR is spontaneous release measured by incubating 10^3 labeled cells in 200 ul of medium alone, and MR is maximum release, obtained by adding 100 ul 0.3% Triton X-100 to target cells.
Various peptides based upon SEQ ID NO: 13 were synthesized, and tested, some of which are presented below. To carry out these tests ^51Cr labelled LB33-EBV cells, which are HLA-Cw6 positive, were incubated with one of the following peptides:
Levels of lysis for positive (“F^+”, MZ2-MEL.3.1), and negative (“F”; MZ2-MEL.2.2.5) control cells are indicated, in FIG. 3.

HLA-Cw6 positive cells = test: Lysis of peptide-pulsed HLA-Cw6 positive cells by CTL 82/31; details: HLA-Cw6 positive cells pulsed with peptide; results not reported in detail
Description: In results not reported here, a second CTL was tested (CTL 82/31).

HLA-A29 = test: 51Cr release lytic assay with GAGE-3 to 6 derived peptides (HLA-A29); details: FIG. 8; successive deletions of SEQ ID NO: 21
Description: The lysis assay employed was a chromium release assay following Herin et at., Int. […] The target melanoma cells were grown in vitro, and then resuspended at 10^7 cells/ml in DMEM, supplemented with 10 mM Hepes and 30% FCS, and incubated for 45 minutes at 37° C. with 200 μCi/ml of Na(^51Cr)O4. Labeled cells were washed three times with DMEM supplemented with 10 mM Hepes. These were then resuspended in DMEM supplemented with 10 mM Hepes and 10% FCS, after which 100 ul aliquots containing 10^3 cells, were distributed into 96 well microplates. Samples of PBLs were added in 100 ul of the same medium, and assays were earned out in duplicate. Plates were centrifuged for 4 minutes at 100 g, and incubated for four hours at 37° C. in an 8% CO2 atmosphere.
The peptide (SEQ ID NO: 21) was tested in a ^51Cr release experiment, following the method described supra.
Successive deletions were prepared, and tested for their ability to provoke lysis, again using the ^51Cr lytic assay.

## TYRPRPRRYVEPPEMI [SEQ ID NO: 13]
CTL 76/6
  TNF induced: more than 30 pg/ml

## TYRPRPRRY [SEQ ID NO: 5]
LB33-EBV cells
  CTL lysis (51Cr release): induced CTL lysis albeit to a lesser extent

## YRPRPRRY [SEQ ID NO: 4, octamer tumor rejection antigen presented by HLA-Cw6]
LB33-EBV cells
  CTL lysis (51Cr release): the best peptide
HLA-Cw6 positive cells
  lysis by second CTL (CTL 82/31): lysed HLA-Cw6 positive cells

## RSTYYWPRPRRYVQ [SEQ ID NO: 21]
HLA-A29
  ability to provoke lysis (51Cr release): did provoke lysis

## TRPRPRRYV [SEQ ID NO: 6]
LB33-EBV cells
  CTL lysis (51Cr release): induced CTL lysis albeit to a lesser extent

## MSWRGRSTYRPRPRR [SEQ ID NO: 12]
CTL 76/6
  TNF induced: less than 10 pg/ml

## Tyr Tyr Trp Pro Arg Pro Arg Arg Tyr [SEQ ID NO: 22]
HLA-A29
  ability to provoke lysis (51Cr release): shortest peptide to provoke lysis
